Data taken from patent US9850225B2, “Compounds useful as immunomodulators” (BRISTOL-MYERS SQUIBB COMPANY, priority 2014, dated 2017).

The molecules below were run against PD-1/PD-L1 interaction (PD-1-Ig / PD-L1-His) (Homo sapiens (Human), UniProt Q9NZQ7) (assay: PD-1/PD-L1 Homogenous Time-Resolved Fluorescence (HTRF) binding assay). Details: PD-1/PD-L1 HTRF binding assay; numeric value; read-out: Range or IC50.
Procedure, shortened: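 HTRF detection used 1 nM europium-cryptate anti-Ig and 20 nM APC anti-His. Compounds first saw 10 nM PD-L1-His for 15 min, and 20 nM PD-1-Ig was then added for another 15 min. Buffer was dPBS plus 0.1% BSA and 0.05% Tween-20. All concentrations are final.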

Sequence of PD-1/PD-L1 interaction (PD-1-Ig / PD-L1-His) (Q9NZQ7 other isoform, or with tags, fused parts or gaps): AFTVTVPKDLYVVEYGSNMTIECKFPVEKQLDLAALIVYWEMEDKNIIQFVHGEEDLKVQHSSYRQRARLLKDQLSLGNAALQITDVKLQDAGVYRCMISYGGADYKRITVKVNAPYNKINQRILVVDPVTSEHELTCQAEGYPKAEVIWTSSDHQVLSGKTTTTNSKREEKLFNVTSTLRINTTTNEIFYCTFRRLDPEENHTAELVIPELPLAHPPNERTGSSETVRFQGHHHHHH

**Q.** `Cc1cc(CN2CCCC[C@@H]2C(=O)O)c(OCc2cncc(C#N)c2)cc1OCc1cccc(-c2ccc3c(c2)OCCO3)c1C` [Example 1288, (R)-1-(2-((5-cyanopyridin-3-yl)methoxy)-4-(3-(2,3-dihydrobenzo[b][1,4]dioxin-6-yl)-2-methylbenzyloxy)-5-methylbenzyl)piperidine-2-carboxylic acid] was tested. Which IC50 did it give?
**A.** 1.88 nM

Same assay, conditions: PD-1/PD-L1 HTRF binding assay; value given as range class; read-out: Range or IC50

**Q.** With `Cc1cc(CN2CCCC[C@H]2C(=O)O)c(OCc2cccc(C#N)c2)cc1OCc1cccc(-c2ccc3c(c2)OCCO3)c1C` [Example 1268, (S)-1-(2-((3-cyanobenzyl)oxy)-4-((3-(2,3-dihydrobenzo[b][1,4]dioxin-6-yl)-2-methylbenzyl)oxy)-5-methylbenzyl)piperidine-2-carboxylic acid] as the molecule, how does the IC50 read?
**A.** 0.6 to 10 nM

**Q.** How did the IC50 turn out when `Cc1cc(CN[C@](C)(CO)C(=O)O)c(OCc2cccc(C#N)c2)cc1OCc1cccc(-c2ccc3c(c2)OCCO3)c1C` [Example 1269, (R)-2-((2-((3-cyanobenzyl)oxy)-4-((3-(2,3-dihydrobenzo[b][1,4]dioxin-6-yl)-2-methylbenzyl)oxy)-5-methylbenzyl)amino)-3-hydroxy-2-methylpropanoic acid] was run?
**A.** 0.6 to 10 nM

**Q.** With `Cc1cc(CNC[C@@H](O)CC(=O)O)c(OCc2ccc(F)c(C#N)c2)cc1OCc1cccc(-c2ccc3c(c2)OCCO3)c1C` [Example 1270, (S)-4-((2-((3-cyano-4-fluorobenzyl)oxy)-4-((3-(2,3-dihydrobenzo[b][1,4]dioxin-6-yl)-2-methylbenzyl)oxy)-5-methylbenzyl)amino)-3-hydroxybutanoic acid] as the molecule, how does the IC50 read?
**A.** 0.6 to 10 nM

**Q.** How did the IC50 turn out when `CC(=O)NCCNCc1cc(C)c(OCc2cccc(-c3ccc4c(c3)OCCO4)c2C)cc1OCc1ccc(F)c(C#N)c1` [Example 1271, N-(2-((2-((3-cyano-4-fluorobenzyl)oxy)-4-((3-(2,3-dihydrobenzo[b][1,4]dioxin-6-yl)-2-methylbenzyl)oxy)-5-methylbenzyl)amino)ethyl)acetamide] was run?
**A.** 0.6 to 10 nM

**Q.** With `Cc1cc(CN2CCCC[C@H]2C(=O)O)c(OCc2ccc(F)c(C#N)c2)cc1OCc1cccc(-c2ccc3c(c2)OCCO3)c1C` [Example 1272, (S)-1-(2-((3-cyano-4-fluorobenzyl)oxy)-4-((3-(2,3-dihydrobenzo[b][1,4]dioxin-6-yl)-2-methylbenzyl)oxy)-5-methylbenzyl)piperidine-2-carboxylic acid] as the molecule, how does the IC50 read?
**A.** 0.6 to 10 nM

**Q.** With `Cc1cc(CN[C@](C)(CO)C(=O)O)c(OCc2ccc(F)c(C#N)c2)cc1OCc1cccc(-c2ccc3c(c2)OCCO3)c1C` [Example 1273, (R)-2-((2-((3-cyano-4-fluorobenzyl)oxy)-4-((3-(2,3-dihydrobenzo[b][1,4]dioxin-6-yl)-2-methylbenzyl)oxy)-5-methylbenzyl)amino)-3-hydroxy-2-methylpropanoic acid] as the molecule, how does the IC50 read?
**A.** 0.6 to 10 nM

**Q.** With `Cc1cc(CN[C@@H](CO)C(=O)O)c(OCc2ccc(F)c(C#N)c2)cc1OCc1cccc(-c2ccc3c(c2)OCCO3)c1C` [Example 1274, (S)-2-((2-((3-cyano-4-fluorobenzyl)oxy)-4-((3-(2,3-dihydrobenzo[b][1,4]dioxin-6-yl)-2-methylbenzyl)oxy)-5-methylbenzyl)amino)-3-hydroxypropanoic acid] as the molecule, how does the IC50 read?
**A.** 0.6 to 10 nM

**Q.** Which IC50 does the source give for `Cc1cc(CN[C@@](C)(CO)C(=O)O)c(OCc2ccc(F)c(C#N)c2)cc1OCc1cccc(-c2ccc3c(c2)OCCO3)c1C` [Example 1275, (S)-2-((2-((3-cyano-4-fluorobenzyl)oxy)-4-((3-(2,3-dihydrobenzo[b][1,4]dioxin-6-yl)-2-methylbenzyl)oxy)-5-methylbenzyl)amino)-3-hydroxy-2-methylpropanoic acid] here?
**A.** 0.6 to 10 nM

**Q.** Which IC50 does the source give for `CC(=O)NCCNCc1cc(C)c(OCc2cccc(-c3ccc4c(c3)OCCO4)c2C)cc1OCc1cccnc1` [Example 1276, N-(2-((4-((3-(2,3-dihydrobenzo[b][1,4]dioxin-6-yl)-2-methylbenzyl)oxy)-5-methyl-2-(pyridin-3-ylmethoxy)benzyl)amino)ethyl)acetamide] here?
**A.** 0.6 to 10 nM

**Q.** With `Cc1cc(CN[C@@H](CO)C(=O)O)c(OCc2cccnc2)cc1OCc1cccc(-c2ccc3c(c2)OCCO3)c1C` [Example 1277, (S)-2-((4-((3-(2,3-dihydrobenzo[b][1,4]dioxin-6-yl)-2-methylbenzyl)oxy)-5-methyl-2-(pyridin-3-ylmethoxy)benzyl)amino)-3-hydroxypropanoic acid] as the molecule, how does the IC50 read?
**A.** 0.6 to 10 nM

**Q.** Which IC50 does the source give for `Cc1cc(CNC[C@@H](O)CC(=O)O)c(OCc2cccnc2)cc1OCc1cccc(-c2ccc3c(c2)OCCO3)c1C` [Example 1278, (S)-4-((4-((3-(2,3-dihydrobenzo[b][1,4]dioxin-6-yl)-2-methylbenzyl)oxy)-5-methyl-2-(pyridin-3-ylmethoxy)benzyl)amino)-3-hydroxybutanoic acid] here?
**A.** 0.6 to 10 nM

**Q.** With `Cc1cc(CN2CCCC[C@H]2C(=O)O)c(OCc2cccnc2)cc1OCc1cccc(-c2ccc3c(c2)OCCO3)c1C` [Example 1279, (S)-1-(4-((3-(2,3-dihydrobenzo[b][1,4]dioxin-6-yl)-2-methylbenzyl)oxy)-5-methyl-2-(pyridin-3-ylmethoxy)benzyl)piperidine-2-carboxylic acid] as the molecule, how does the IC50 read?
**A.** 0.6 to 10 nM

**Q.** How did the IC50 turn out when `Cc1cc(CN[C@@](C)(CO)C(=O)O)c(OCc2cccnc2)cc1OCc1cccc(-c2ccc3c(c2)OCCO3)c1C` [Example 1280, (S)-2-((4-((3-(2,3-dihydrobenzo[b][1,4]dioxin-6-yl)-2-methylbenzyl)oxy)-5-methyl-2-(pyridin-3-ylmethoxy)benzyl)amino)-3-hydroxy-2-methylpropanoic acid] was run?
**A.** 0.6 to 10 nM

**Q.** With `Cc1cc(CN[C@](C)(CO)C(=O)O)c(OCc2cccnc2)cc1OCc1cccc(-c2ccc3c(c2)OCCO3)c1C` [Example 1281, (R)-2-((4-((3-(2,3-dihydrobenzo[b][1,4]dioxin-6-yl)-2-methylbenzyl)oxy)-5-methyl-2-(pyridin-3-ylmethoxy)benzyl)amino)-3-hydroxy-2-methylpropanoic acid] as the molecule, how does the IC50 read?
**A.** 0.6 to 10 nM

**Q.** With `CC(=O)NCCNCc1cc(C)c(OCc2cccc(-c3ccc4c(c3)OCCO4)c2C)cc1OCc1cncc(C#N)c1` [Example 1282, N-(2-(2-((5-cyanopyridin-3-yl)methoxy)-4-(3-(2,3-dihydrobenzo[b][1,4]dioxin-6-yl)-2-methylbenzyloxy)-5-methylbenzylamino)ethyl)acetamide] as the molecule, how does the IC50 read?
**A.** 0.6 to 10 nM

**Q.** For `Cc1cc(CNC[C@@H](O)CC(=O)O)c(OCc2cncc(C#N)c2)cc1OCc1cccc(-c2ccc3c(c2)OCCO3)c1C` [Example 1283, (S)-4-(2-((5-cyanopyridin-3-yl)methoxy)-4-(3-(2,3-dihydrobenzo[b][1,4]dioxin-6-yl)-2-methylbenzyloxy)-5-methylbenzylamino)-3-hydroxybutanoic acid], which IC50 is on record?
**A.** 0.6 to 10 nM

**Q.** `Cc1cc(CN[C@@H](CO)C(=O)O)c(OCc2cncc(C#N)c2)cc1OCc1cccc(-c2ccc3c(c2)OCCO3)c1C` [Example 1284, (S)-2-(2-((5-cyanopyridin-3-yl)methoxy)-4-(3-(2,3-dihydrobenzo[b][1,4]dioxin-6-yl)-2-methylbenzyloxy)-5-methylbenzylamino)-3-hydroxypropanoic acid] was tested. Which IC50 did it give?
**A.** 0.6 to 10 nM

**Q.** With `Cc1cc(CN2CCCC[C@H]2C(=O)O)c(OCc2cncc(C#N)c2)cc1OCc1cccc(-c2ccc3c(c2)OCCO3)c1C` [Example 1285, (S)-1-(2-((5-cyanopyridin-3-yl)methoxy)-4-(3-(2,3-dihydrobenzo[b][1,4]dioxin-6-yl)-2-methylbenzyloxy)-5-methylbenzyl)piperidine-2-carboxylic acid] as the molecule, how does the IC50 read?
**A.** 0.6 to 10 nM

**Q.** How did the IC50 turn out when `Cc1cc(CN[C@@](C)(CO)C(=O)O)c(OCc2cncc(C#N)c2)cc1OCc1cccc(-c2ccc3c(c2)OCCO3)c1C` [Example 1286, (S)-2-(2-((5-cyanopyridin-3-yl)methoxy)-4-(3-(2,3-dihydrobenzo[b][1,4]dioxin-6-yl)-2-methylbenzyloxy)-5-methylbenzylamino)-3-hydroxy-2-methylpropanoic acid] was run?
**A.** 0.6 to 10 nM

**Q.** Which IC50 does the source give for `Cc1cc(CN[C@](C)(CO)C(=O)O)c(OCc2cncc(C#N)c2)cc1OCc1cccc(-c2ccc3c(c2)OCCO3)c1C` [Example 1287, (R)-2-(2-((5-cyanopyridin-3-yl)methoxy)-4-(3-(2,3-dihydrobenzo[b][1,4]dioxin-6-yl)-2-methylbenzyloxy)-5-methylbenzylamino)-3-hydroxy-2-methylpropanoic acid] here?
**A.** 0.6 to 10 nM

**Q.** For `CCc1cc(CNCCNC(C)=O)c(OCc2cccc(C#N)c2)cc1OCc1cccc(-c2ccc3c(c2)OCCO3)c1C` [Example 1289, N-(2-(2-(3-cyanobenzyloxy)-4-(3-(2,3-dihydrobenzo[b][1,4]dioxin-6-yl)-2-methylbenzyloxy)-5-ethylbenzylamino)ethyl)acetamide], which IC50 is on record?
**A.** 0.6 to 10 nM

**Q.** `CCc1cc(CN[C@@](C)(CO)C(=O)O)c(OCc2cccc(C#N)c2)cc1OCc1cccc(-c2ccc3c(c2)OCCO3)c1C` [Example 1290, (S)-2-(2-(3-cyanobenzyloxy)-4-(3-(2,3-dihydrobenzo[b][1,4]dioxin-6-yl) -2-methylbenzyloxy)-5-ethylbenzylamino)-3-hydroxy-2-methylpropanoic acid] was tested. Which IC50 did it give?
**A.** 0.6 to 10 nM

**Q.** For `CCc1cc(CN[C@](C)(CO)C(=O)O)c(OCc2cccc(C#N)c2)cc1OCc1cccc(-c2ccc3c(c2)OCCO3)c1C` [Example 1291, (R)-2-(2-(3-cyanobenzyloxy)-4-(3-(2,3-dihydrobenzo[b][1,4]dioxin-6-yl)-2-methylbenzyloxy)-5-ethylbenzylamino)-3-hydroxy-2-methylpropanoic acid], which IC50 is on record?
**A.** 0.6 to 10 nM

**Q.** `C=Cc1cc(CNCCNC(C)=O)c(OCc2cccc(C#N)c2)cc1OCc1cccc(-c2ccc3c(c2)OCCO3)c1C` [Example 1292, N-(2-(2-(3-cyanobenzyloxy)-4-(3-(2,3-dihydrobenzo[b][1,4]dioxin-6-yl)-2-methylbenzyloxy)-5-vinylbenzylamino)ethyl)acetamide] was tested. Which IC50 did it give?
**A.** 0.6 to 10 nM

**Q.** With `C=Cc1cc(CN2CCCC[C@H]2C(=O)O)c(OCc2cccc(C#N)c2)cc1OCc1cccc(-c2ccc3c(c2)OCCO3)c1C` [Example 1293, (S)-1-(2-(3-cyanobenzyloxy)-4-(3-(2,3-dihydrobenzo[b][1,4]dioxin-6-yl) -2-methylbenzyloxy)-5-vinylbenzyl)piperidine-2-carboxylic acid] as the molecule, how does the IC50 read?
**A.** 0.6 to 10 nM
